PMC10741476, “The Allosteric Regulation of Β-Ureidopropionase Depends on Fine-Tuned Stability of Active-Site Loops and Subunit Interfaces” (Biomolecules, 2023)
Read-outs that look alike come from different tables or passages of the source. Residues, ends and D or L forms follow the SMILES beside them.

T1: human β-ureidopropionase (HsβUP) (Homo sapiens, UniProt Q9UBR1)
T1 construct: gene UPB1
T1 sequence (Q9UBR1 1-384): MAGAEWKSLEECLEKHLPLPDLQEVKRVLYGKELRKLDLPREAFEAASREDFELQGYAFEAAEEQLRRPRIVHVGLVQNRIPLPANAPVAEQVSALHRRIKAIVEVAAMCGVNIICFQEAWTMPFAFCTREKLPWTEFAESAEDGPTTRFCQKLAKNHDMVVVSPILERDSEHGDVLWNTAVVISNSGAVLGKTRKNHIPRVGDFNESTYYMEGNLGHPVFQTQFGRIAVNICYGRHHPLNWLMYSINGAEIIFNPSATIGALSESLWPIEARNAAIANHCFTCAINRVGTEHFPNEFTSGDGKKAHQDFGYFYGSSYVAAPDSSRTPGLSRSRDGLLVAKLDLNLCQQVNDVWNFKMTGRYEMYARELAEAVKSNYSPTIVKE

B1: human β-ureidopropionase (HsβUP) (Homo sapiens) (protein)
chain: T1 sequence (Q9UBR1 1-384)

Legend:
[1] = target: T1, human β-ureidopropionase (HsβUP); experiment: discontinuous OPA fluorescence assay of beta-alanine formation from NCβA; type: biochemical
Description: discontinuous OPA fluorescence assay of beta-alanine formation from NCβA on human β-ureidopropionase (HsβUP)

[2] = substrate: NC(=O)NCCC(=O)O; experiment: as above; type: biochemical, Homo sapiens; conditions: pH 6.5, 37 °C, 100 mM MES, 50 mM NaCl

Molecule | Ki [1] [µM] | other results
CC(C)C(=O)O [isobutyric acid] | 2270 | –
CC(C)(N)C(=O)O [2-aminoisobutyric acid] | 151 | –
NCC(=O)NCC(=O)O [glycyl-glycine] (H-Gly-Gly-OH) | – | Ki ([1]; pH 6.5, 37 °C, 100 mM MES, 50 mM NaCl, competitive mode assumed (data best fitted as non-competitive), substrate NCβA): 237 µM
B1 | – | Km [2]: 101.4 µM
